Results on one compound are retold here after patent EP2378291A1, “Lacosamide detection assay” (UCB Pharma GmbH, priority 2010, dated 2011).

Like-named read-outs stand apart in the source and are kept apart here.

Series [1] in a line: Clinical study: saliva and plasma samples taken in parallel, correlation of lacosamide concentrations. It is filed as in vivo, human. The note with it: for Kp: human, saliva. The procedure: One embodiment of the present disclosure relates to the use of saliva samples as a tool to assess the concentration of lacosamide in the body of a mammal, particularly a human being. […] Preferably, saliva samples should be taken at least about 1 hour, preferably at least about 2 hours after an actual administration of lacosamide to said mammal to allow a steady state concentration to form, and to allow the proportional distribution of lacosamide into the saliva.
Accordingly, one embodiment of the current invention relates to the use of a saliva sample to assess the concentration of lacosamide in the body of a mammal, particularly in the plasma of a patient This can be done based on the recognition that the concentration of lacosamide in saliva is about 1.17 times the concentration in plasma. Based on the measurement of lacosamide in saliva, the concentration in plasma can be easily assessed using the equation C plasma= C saliva x about 0.855 (see Example 3 in the experimental part). The determination of lacosamide in saliva should be done in the steady state, which is usually reached after about one hour to two hours after the last drug administration to the mammal/patient from which the saliva sample is to be taken.
In a clinical study saliva and plasma samples have been taken in parallel.
The concentrations of lacosamide can be calculated using the following equations: Saliva concentration of lacosamide = 0.065 + 1.1697*plasma concentration of lacosamide [formula] Plasma concentration of lacosamide = 0.855*saliva concentration of lacosamide [formula]
These equations were validated by comparing measured lacosamide plasma concentrations with plasma concentrations predicted from measured saliva concentrations.

Series [2] can be described thus: Expected plasma Cmax at bid doses, used for individual dose adaptation. The series is classed as in vivo. The procedure: Based on the determination of the actual lacosamide concentration in plasma (Cmessured) measured at time t (in hours after actual administration) and the comparison with the target concentration, an individual dosing may be adapted according to the following formula dose_new = dose_old⋅(Cmax,expected ⋅e^(-0.05⋅t))/(Cmeasured ⋅e^(-0.05⋅1h)) [formula]
The expected Cmax is usually at about 5, 10, 15, or 20 µg/mL for dose 100, 200, 300, or 400 mg bid.

A short description of series [3]: Lacosamide plasma concentration of a patient, HPLC-UV assay with internal standard. The note with it: human, patient taking 100 mg twice a day, sample 7 h after the last administration, read-out: measured lacosamide plasma concentration. The series is classed as in vivo. The protocol: 100 µL of plasma are transferred into Eppendorf tubes.
Calibration samples are added 10 µL working solution.
Study samples are added 10 µL of working solution int standard
After mixing 300 µL of methanol were added, the mixture is vortexed again and centrifuged
10 minutes at room temperature. 70 µL of the supernatant were transferred into a autosamplervial.
15 µL were injected into the HPLC-system.
For calibration the mean response factor for the peakheight ratios at 10 µg/mL was calculated: • RF = peakheight lacosamide/ peakheight int. Std. • Concentration in samples were calculated: 10/RFcalibration*RFsample
A patient taking 100 mg twice a day is suffering from seizures. A sample is taken 7 h after the last administration of lacosamide. The measured lacosamide plasma concentration is 1.9 µg/mL. The newly requested Cmax is 5 µg/mL, and the new dose has to be dose_new = 100⋅(5⋅e^(-0.05⋅t))/(1.9⋅e^(-0.05⋅1h)) = 195 mg bid (dose has to be doubled) [formula]

A word on the Cmax: it is the maximum level reached in the sampled fluid or tissue. As to `COC[C@@H](NC(C)=O)C(=O)NCc1ccccc1` [Lacosamide, (R)-2-acetamido-N-benzyl-3-methoxypropionamide], in series [1] (Figure 2), the “correlation between lacosamide concentrations in saliva and plasma” value is “excellent correlation”. Besides, the Kp was 1.17 in series [1] (regression equation with intercept 0.065, read-out: slope of Saliva concentration of lacosamide versus plasma concentration of lacosamide) and approximately 1.17 in series [1] (steady state, about one to two hours after last administration, read-out: concentration of lacosamide in saliva relative to the concentration in plasma). Besides, the Cmax is approximately 5000 ng/mL in series [2] (dose 100 mg bid), approximately 10000 ng/mL in series [2] (dose 200 mg bid), approximately 15000 ng/mL in series [2] (dose 300 mg bid) and approximately 20000 ng/mL in series [2] (dose 400 mg bid). Besides, the concentration at 7 h in series [3] is 1900 ng/mL.
